According to PubChem BioAssay AID1259338 (Broad Institute, 2017):
The source made the active and inactive calls.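 How the source made its calls: active means compounds lowering the signal with a fitted AC50 at or below a set concentration limit; inconclusive means flat curve with 30 to 70% inhibition, or a poor fit; inactive means the rest.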

Target: Caspase recruitment domain-containing protein 9 (Homo sapiens) + E3 ubiquitin-protein ligase TRIM62 (Homo sapiens) (UniProt Q9H257+Q9BVG3)
Experiment: CARD9/TRIM62 protein interaction inhibitors – cell lysate, HEK293FT lysates, Luminex bead readout, dose response (AID 1259338); on activity change, negative = inhibition: reference of the scale not given here
Settings: Luminex bead PPI, MFI

Caspase recruitment domain-containing protein 9 (Homo sapiens) + E3 ubiquitin-protein ligase TRIM62 (Homo sapiens), sequence (Q9BVG3 whole entry, looked up, the tested form may be a part): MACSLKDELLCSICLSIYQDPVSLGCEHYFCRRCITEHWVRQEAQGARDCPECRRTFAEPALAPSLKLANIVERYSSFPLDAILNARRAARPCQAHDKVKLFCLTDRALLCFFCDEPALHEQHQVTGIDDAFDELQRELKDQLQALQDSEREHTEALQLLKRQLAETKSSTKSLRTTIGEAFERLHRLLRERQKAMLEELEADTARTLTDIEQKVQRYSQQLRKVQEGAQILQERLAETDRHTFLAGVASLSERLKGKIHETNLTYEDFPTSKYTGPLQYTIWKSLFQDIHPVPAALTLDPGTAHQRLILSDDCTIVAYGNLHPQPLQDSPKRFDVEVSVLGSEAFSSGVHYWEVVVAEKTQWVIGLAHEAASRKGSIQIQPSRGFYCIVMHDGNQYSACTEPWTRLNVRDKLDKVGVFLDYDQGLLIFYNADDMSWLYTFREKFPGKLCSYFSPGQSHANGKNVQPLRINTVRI
Caspase recruitment domain-containing protein 9 (Homo sapiens) + E3 ubiquitin-protein ligase TRIM62 (Homo sapiens), sequence (Q9H257 whole entry, looked up, the tested form may be a part): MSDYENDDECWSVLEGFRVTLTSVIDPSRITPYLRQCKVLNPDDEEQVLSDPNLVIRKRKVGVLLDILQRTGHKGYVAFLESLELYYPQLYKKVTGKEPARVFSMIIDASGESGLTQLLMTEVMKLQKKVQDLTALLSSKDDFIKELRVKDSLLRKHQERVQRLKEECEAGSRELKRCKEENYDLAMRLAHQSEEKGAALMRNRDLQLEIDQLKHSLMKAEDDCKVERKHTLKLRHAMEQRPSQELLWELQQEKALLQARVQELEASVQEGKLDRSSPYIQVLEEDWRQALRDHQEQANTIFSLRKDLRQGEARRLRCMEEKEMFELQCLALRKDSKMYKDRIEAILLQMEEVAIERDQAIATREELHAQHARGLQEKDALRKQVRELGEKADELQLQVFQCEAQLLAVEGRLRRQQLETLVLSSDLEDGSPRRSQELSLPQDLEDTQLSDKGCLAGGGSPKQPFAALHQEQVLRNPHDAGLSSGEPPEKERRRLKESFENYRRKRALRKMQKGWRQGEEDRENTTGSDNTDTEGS

SMILES | AC50
O=C(Nc1nccs1)c1cc(-c2ccco2)nc2ccccc12 | > 160 µM (inactive)
O=C(Nc1nc(-c2ccccn2)cs1)c1cccc(-n2cnnn2)c1 | 77.9 µM
O=C(Nc1ccc(OCC(=O)N2CCOCC2)cc1)c1cncc(Br)c1 | 42.1 µM
Cc1ccc(-c2cc(C(=O)NCc3ccco3)c3ccccc3n2)o1 | 75 µM
C[C@H](CO)N1C[C@H](C)[C@@H](CN(C)CC2CCCCC2)OCCCC[C@H](C)Oc2ccc(NS(=O)(=O)c3ccc(F)cc3)cc2C1=O | 73 µM
O=C(O)C1Oc2cc3ccccc3cc2O1 | 68.9 µM
Cc1ccc(S(=O)(=O)Nc2ccc3c(c2)C(=O)N([C@H](C)CO)C[C@H](C)[C@@H](CN(C)C(=O)C2CCCCC2)OCCCC[C@H](C)O3)cc1 | > 160 µM (inactive)
Nc1c(C(=O)NCc2ccco2)c2nc3ccccc3nc2n1CCN1CCOCC1 | > 160 µM (inactive)
O=C1C=C(c2ccccc2)Nc2ccccc2N1 | > 160 µM (inactive)
O=C(Nc1nc(-c2ccco2)c(-c2ccco2)s1)C1CCC1 | 54.7 µM
Cc1ccc(C(=O)Nc2ccc(N3CCC(C(N)=O)(N4CCCCC4)CC3)c(C(=O)O)c2)cc1 | 24.3 µM
O=C(NC1CC1)c1cc(-c2ccco2)nc2ccccc12 | > 160 µM (inactive)
Cc1ccsc1[C@@H]1CCN(Cc2ccc(-c3ccn[nH]3)o2)C[C@H]1O | > 160 µM (inactive)
CCc1ccc(Nc2nc(C(=O)NCc3ccc(N(C)C)cc3)nc3ccccc23)cc1 | 49 µM
O=C(Cc1ccc(S(=O)(=O)N2CCOCC2)s1)Nc1nc2c(s1)CCCC2 | > 160 µM (inactive)
C[C@H](CO)N1C[C@H](C)[C@@H](CN(C)CC2CCCCC2)OCCCC[C@H](C)Oc2ccc(NS(C)(=O)=O)cc2C1=O | 28.9 µM
O=S(=O)(c1ccccc1)N1CC2CN(Cc3ccc(O)cc3)C2C1 (centres undefined) | 22.8 µM
O=[N+]([O-])c1cccc(-c2nnc3ccc4ccccc4n23)c1 | 80.2 µM
O=C(NCCCN1CCOCC1)c1cc(-c2ccco2)nc2ccccc12 | 41.8 µM
O=C1CC2(CCN(C(=O)Nc3ccccc3)CC2)CN1Cc1ccc(Cl)cc1 | 68.7 µM
COc1ccc(S(=O)(=O)c2ccccc2)cc1NS(=O)(=O)c1cccc(C(=O)O)c1 | > 160 µM (inactive)
NC(=O)C1(N2CCCCC2)CCN(c2ncc(NC(=O)c3cccs3)cc2C(=O)O)CC1 | 21.3 µM

Same assay, conditions: Luminex bead PPI, MFI, at 38 µM (top of the series)

SMILES | activity change, negative = inhibition
Cc1ccc(C)n1Nc1nc(O)cs1 | inactive
CCC12CCCN3CCc4c(n(c5ccccc45)C(O)(C(=O)OC)C1)C32 (centres undefined) | inactive

Same assay, conditions: Luminex bead PPI, MFI, at 80 µM (top of the series)

SMILES | activity change, negative = inhibition
COc1ccc(N2CC3=C(N2)c2ccccc2CC3)cc1 | inactive
O=C1CS/C(=N\N=C\c2ccco2)N1c1ccccc1 | inactive
Cc1noc(C)c1S(=O)(=O)Nc1ccc2c(c1)C(=O)N([C@H](C)CO)C[C@H](C)[C@@H](CN(C)CC1CCCCC1)OCCCC[C@H](C)O2 | inactive
Cc1cc(C)c2c(N)c(C(=O)Nc3cccc4ccccc34)sc2n1 | inactive
O=C(COC(=O)CCC(=O)c1cccs1)NCc1ccco1 | inactive
O=C(Nc1nc(-c2nc3ccccc3s2)cs1)c1ccco1 | inactive
CC1Cc2ccccc2N1CC(=O)NC(=O)NC(C)(C)C (centres undefined) | inactive
O=[N+]([O-])c1c(NCCCO)cc(SCc2ccco2)c2nonc12 | inactive
COC[C@]1(O)CCN(C(=O)CCN(C)S(C)(=O)=O)CC1(C)C | inactive
Cc1ccc(-c2nn(-c3ccccc3)cc2CN(Cc2ccccc2)C(=O)CCC(=O)O)o1 | inactive
O=C(O)C(c1ccccc1)C(c1ccccc1)c1ccccc1 (centres undefined) | inactive
CCOc1cc2c(C#N)c(N3CCNCC3)nc(N)c2c(N)n1 | inactive
O=c1oc(/C=C/c2ccc([N+](=O)[O-])s2)nc2ccccc12 | inactive
O=C(Nc1cccc2nsnc12)c1ccc(-c2cccc(Cl)c2)o1 | inactive
O=C(O)c1ccccc1SC1CC(=O)N(Cc2ccccc2)C1=O (centres undefined) | inactive
O=C(CC1Nc2ccccc2OC1=O)Nc1ccc(Cl)cc1 (centres undefined) | inactive
CN1C(=O)C(c2ccccc2[N+](=O)[O-])C(=O)c2ccccc21 (centres undefined) | inactive
O=C(O)COCC(=O)NCc1ccco1 | inactive
Nc1ccccc1Sc1nccc(C(F)(F)F)n1 | inactive
Cn1nnnc1SCCNCc1ccc(-c2cccc(C(F)(F)F)c2)o1 | inactive
COc1ccc(-c2ccc(CCC(=O)O)o2)cc1 | inactive
O=C(CCc1nc(-c2ccccc2)no1)NCC1CNCCOC1 (centres undefined) | inactive
Cc1cnc(C)c(N2CCN(C(=O)[C@H]3CC[C@@H](N)C3)CC2)n1 | inactive

SMILES | activity change, negative = inhibition
CC(=O)c1sc2nc(-c3ccco3)ccc2c1N | inactive
Cc1ccc(N2C(=O)c3ccccc3C2C(=O)c2ccc(O)cc2O)cc1 (centres undefined) | inactive
FC(F)(F)c1cc(Cl)c2nnc(C(F)(F)Cl)n2c1 | inactive
Cc1cc(C(=O)Nc2nc3c(s2)CCc2ccccc2-3)no1 | inactive
COc1ccc(-c2nc(SCC(=O)N3CCN(c4ccccc4OC)CC3)n[nH]2)cc1 | inactive
CCc1cc2c(=O)n(Cc3ccco3)c(SC)nc2s1 | inactive
N#Cc1c2ccc(OCC(=O)NCc3ccco3)cc2n2ccccc12 | inactive
CCc1oc2ccccc2c1C(=O)CCN1CCCCC1 | inactive
O=C(N/N=C/C=C/c1ccco1)c1cncc(Br)c1 | inactive
CCCN1CCc2nc(SCc3nc(-c4ccc(OC)cc4OC)oc3C)[nH]c(=O)c2C1 | inactive
COCC(=O)n1nc(-c2ccco2)nc1NCc1cccs1 | inactive
O=C(O)c1cc(-c2ccc(-c3ccc(F)cc3)o2)nc2ccccc12 | inactive
Cc1ccc(Cc2cnc(N)s2)o1 | inactive
C(=N\n1cnnc1SCc1ccccc1)/c1ccco1 | inactive
C[C@H](CO)N1C[C@H](C)[C@@H](CN(C)CC2CCCCC2)OCCCC[C@H](C)Oc2ccc(NS(=O)(=O)c3cn(C)cn3)cc2C1=O | inactive
O=C(Nc1nnc(-c2ccco2)s1)c1ccccc1 | inactive
O=C(NC(Sc1ncccn1)C(=O)c1ccccc1)c1ccccc1 (centres undefined) | inactive
N#Cc1sc2nc(-c3ccccc3)cc(-c3ccco3)c2c1N | inactive
O=C(NCc1ccco1)C1CCCN(S(=O)(=O)c2cccc3nonc23)C1 (centres undefined) | inactive
C(=C\c1ccco1)/c1nc2ccccc2[nH]1 | inactive
CCCC(=O)NCc1ccc2c(c1)cc(C)n2C | inactive
C[C@H](CO)N1C[C@H](C)[C@@H](CN(C)C(=O)C2CCCCC2)OCCCC[C@H](C)Oc2ccc(NS(=O)(=O)c3cccs3)cc2C1=O | inactive
